Assay results from patent US7763429B2, “Compound containing farnesyl diphosphate for modulating TRPV3 function and use thereof” (Korea University Industry and Academic Collaboration …, priority 2008, dated 2010).
pEC50: −log10 of the molar value. Values belong to the compound of their own block, whether it stands above or below them.

Key:
rTRPV4 = target: T1, rTRPV4 (Rattus norvegicus, UniProt Q9ERZ8); test: Fluo-3 calcium imaging of TRPV4 transfected HEK293T cells; assay type: cell-based; conditions: 1 μM of FPP
T1 construct: transiently transfected with plasmid DNA containing polynucleotide encoding; expressed in transfected cells; host or cells: HEK293T (ATCC CRL-11268), transient
T1 sequence (Q9ERZ8 whole entry): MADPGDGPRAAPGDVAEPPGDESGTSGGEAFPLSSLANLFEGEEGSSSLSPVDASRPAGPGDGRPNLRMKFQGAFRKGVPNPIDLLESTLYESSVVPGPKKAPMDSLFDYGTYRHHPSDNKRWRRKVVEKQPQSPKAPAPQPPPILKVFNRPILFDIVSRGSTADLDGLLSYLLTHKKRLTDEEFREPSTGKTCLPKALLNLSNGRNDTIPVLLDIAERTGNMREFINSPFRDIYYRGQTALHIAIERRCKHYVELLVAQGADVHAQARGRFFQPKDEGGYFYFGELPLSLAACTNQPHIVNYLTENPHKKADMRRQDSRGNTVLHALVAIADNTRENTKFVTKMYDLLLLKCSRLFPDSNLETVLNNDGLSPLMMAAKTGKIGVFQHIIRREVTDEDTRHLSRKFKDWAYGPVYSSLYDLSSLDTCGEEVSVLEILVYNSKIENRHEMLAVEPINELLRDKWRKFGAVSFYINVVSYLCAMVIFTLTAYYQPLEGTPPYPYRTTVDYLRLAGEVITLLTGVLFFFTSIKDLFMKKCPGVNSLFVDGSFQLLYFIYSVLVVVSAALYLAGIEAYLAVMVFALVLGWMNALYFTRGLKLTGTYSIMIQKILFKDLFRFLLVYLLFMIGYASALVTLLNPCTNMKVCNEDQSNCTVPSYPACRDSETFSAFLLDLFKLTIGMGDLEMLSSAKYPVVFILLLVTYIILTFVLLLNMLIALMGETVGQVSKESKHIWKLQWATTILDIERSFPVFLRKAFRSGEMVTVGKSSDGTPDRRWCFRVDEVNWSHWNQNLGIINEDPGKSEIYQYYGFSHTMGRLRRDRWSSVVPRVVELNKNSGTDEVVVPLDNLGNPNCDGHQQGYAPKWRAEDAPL
Method: (§1) HEK293T cell line (ATCC CRL-11268) was transiently transfected with plasmid DNA containing polynucleotide encoding […] (SEQ. ID. NO: 1), rTRPV2 (SEQ. ID. NO: 2), mTRPV3 (SEQ. ID. NO: 3), rTRPV4 (SEQ. ID. NO: 4), mTRPM8 (SEQ. ID. NO: 5) or mTRPA1 (SEQ. ID. NO: 6).
(§2) Particularly, the HEK293T cell line was transiently transfected with 3 μg/35 mm dish of rTRPV1, rTRPV2, mTRPV3, rTRPV4, mTRPM8 and mTRPA1 plasmid DNA, and 600 ng/well of pCDNA3 (Invitrogen Corp., USA; containing green fluorescent protein (GFP) cDNA) using Fugene6 (Roche Diagnostics, USA) according to manufacturer's instruction. The transformed cells were cultured in DMEM/F12 medium containing 10% FBS and 1% penicillin/streptomycin in a CO2 incubator for 24 hours. The cells were smeared on poly-L-lysine-coated glass coverslips, followed by further culture for 10-24 hours.
(§3) Particularly, the transfected cell line of Example <3-1> was loaded with Fluo-3AM (5 μM; Sigma Aldrich, USA) in the bath solution (140 mM NaCl, 5 mM KCl, 2 mM CaCl2, 1 mM MgCl2, 10 mM HEPES; adjusted to pH 7.4 with NaOH) containing 0.02% pluronic acid (Invitrogen, USA) at 37° C. for 1 hour. Calcium imaging was performed with LSM5 Pascal confocal microscope (Carl Zeiss, Germany), and time-lapse images (excitation 488 nm/emission 514 nm) were collected every 3 seconds using Carl Zeiss ratio tool software (Carl Zeiss, Germany). […]

mTRPV3 [1] = target: T2, mTRPV3 (Mus musculus, UniProt Q8K424, A9V); test: Whole-cell voltage-clamp recording of mTRPV3 transfected HEK293T cells; assay type: cell-based; conditions: for TRPV3 activity (whole cell current): mTRPV3 transfected HEK293T cells
T2 construct: transiently transfected with plasmid DNA containing polynucleotide encoding; expressed in transfected cells; host or cells: HEK293T (ATCC CRL-11268), transient
T2 sequence (Q8K424 1-791 A9V): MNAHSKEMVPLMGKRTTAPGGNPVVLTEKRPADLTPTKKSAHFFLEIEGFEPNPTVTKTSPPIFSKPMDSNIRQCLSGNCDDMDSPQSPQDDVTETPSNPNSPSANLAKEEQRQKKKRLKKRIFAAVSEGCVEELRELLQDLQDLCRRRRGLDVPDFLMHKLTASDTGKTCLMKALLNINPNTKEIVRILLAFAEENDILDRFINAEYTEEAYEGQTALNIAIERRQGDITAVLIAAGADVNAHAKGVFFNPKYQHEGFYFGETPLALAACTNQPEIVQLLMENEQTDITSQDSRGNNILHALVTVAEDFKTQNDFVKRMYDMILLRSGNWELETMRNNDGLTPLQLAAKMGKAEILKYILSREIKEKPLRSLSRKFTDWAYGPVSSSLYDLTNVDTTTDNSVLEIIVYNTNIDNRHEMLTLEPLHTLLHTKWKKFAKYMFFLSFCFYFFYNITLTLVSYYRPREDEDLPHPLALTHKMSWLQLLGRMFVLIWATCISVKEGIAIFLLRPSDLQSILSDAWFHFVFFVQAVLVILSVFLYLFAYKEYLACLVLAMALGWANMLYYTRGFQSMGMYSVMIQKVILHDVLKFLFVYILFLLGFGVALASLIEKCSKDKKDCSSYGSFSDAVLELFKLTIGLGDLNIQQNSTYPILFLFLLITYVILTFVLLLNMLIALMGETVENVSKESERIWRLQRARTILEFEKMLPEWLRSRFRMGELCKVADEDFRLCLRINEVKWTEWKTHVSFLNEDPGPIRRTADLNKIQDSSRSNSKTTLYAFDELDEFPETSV
Method: as §1, §2
The mTRPV3 transfected cell line prepared in Example 1 was treated with 1 μM of FPP (Biomol, USA), 4 mM of camphor (Sigma-Aldrich, USA) and ruthenium red (RR; Sigma-Aldrich, USA) at a required time intervals as shown in FIG. 1a. Stock solutions were made using water or DMSO, and were diluted with test solutions before use.
Whole-cell voltage-clamp recording, one of the patch-clamp techniques, was performed with the transfected cell line of Example <1-1> according to the method of Bandel M, et al. (Neuron 41:849-857, 2004).
Particularly, the extracellular solution (140 mM NaCl, 5 mM KCl, 2 mM CaCl2, 1 mM MgCl2, 10 mM HEPES; titrated to pH 7.4 with NaOH) and the pipette solution (140 mM CsCl, 5 mM EGTA, 10 mM HEPES, 2.0 mM MgATP, 0.2 mM NaGTP; titrated to pH 7.2 with CSOH) were used. The potential was held at −60 mV for 250 ms, voltage-ramp pulsed from −80 mV to +80 mV for […] and returned to −60 mV for 250 ms, which was repeated without intersweep. This experiment was repeated 5 times.

mTRPV3 [2] = target: T2, mTRPV3; test: Fluo-3 calcium imaging of mTRPV3 transfected HEK293T cells; assay type: cell-based
Method: as §1, §2
The mTRPV3 transfected cell line prepared in Example 1 was treated with FPP at different concentrations from 0.1 to 1,000 nM.
Particularly, the transfected cell line of Example <3-1> was loaded with Fluo-3AM (5 μM; Sigma Aldrich, USA) in the bath solution (140 mM NaCl, 5 mM KCl, 2 mM CaCl2, 1 mM MgCl2, 10 mM HEPES; adjusted to pH 7.4 with NaOH) containing 0.02% pluronic acid (Invitrogen, USA) at 37° C. for 1 hour. Calcium imaging was performed with LSM5 Pascal confocal microscope (Carl Zeiss, Germany), and time-lapse images (excitation 488 nm/emission 514 nm) were collected every 3 seconds using Carl Zeiss ratio tool software (Carl Zeiss, Germany). Mean value curve of calcium influx response (n=12−62 per each experimental values) was made by Hill plot.
(§4) The TRPA1, TRPV1, TRPV2, TRPV3, TRPV4 and TRPM8 transfected cell lines prepared by the method of Example 1 and the non-transfected HEK cell line (control group) were treated with 1 μM of FPP. Calcium imaging was performed with the transfected cell lines treated as the above by the same manner as described in Example <3-2>.
as §4, with “with 10” for “with 1”, “of IPP (isopentenyl pyrophosphate: Biomol, USA) and 10 μM of GGPP (geranyl-geranyl pyrophosphate: Biomol, USA), the TRPV3 regulator analogues.” for “of FPP.”

mTRPA1 = target: T3, mTRPA1 (Mus musculus, UniProt Q8BLA8); test: Fluo-3 calcium imaging of TRPA1 transfected HEK293T cells; assay type: cell-based; conditions: 1 μM of FPP
T3 construct: transiently transfected with plasmid DNA containing polynucleotide encoding; expressed in transfected cells; host or cells: HEK293T (ATCC CRL-11268), transient
T3 sequence (Q8BLA8 whole entry): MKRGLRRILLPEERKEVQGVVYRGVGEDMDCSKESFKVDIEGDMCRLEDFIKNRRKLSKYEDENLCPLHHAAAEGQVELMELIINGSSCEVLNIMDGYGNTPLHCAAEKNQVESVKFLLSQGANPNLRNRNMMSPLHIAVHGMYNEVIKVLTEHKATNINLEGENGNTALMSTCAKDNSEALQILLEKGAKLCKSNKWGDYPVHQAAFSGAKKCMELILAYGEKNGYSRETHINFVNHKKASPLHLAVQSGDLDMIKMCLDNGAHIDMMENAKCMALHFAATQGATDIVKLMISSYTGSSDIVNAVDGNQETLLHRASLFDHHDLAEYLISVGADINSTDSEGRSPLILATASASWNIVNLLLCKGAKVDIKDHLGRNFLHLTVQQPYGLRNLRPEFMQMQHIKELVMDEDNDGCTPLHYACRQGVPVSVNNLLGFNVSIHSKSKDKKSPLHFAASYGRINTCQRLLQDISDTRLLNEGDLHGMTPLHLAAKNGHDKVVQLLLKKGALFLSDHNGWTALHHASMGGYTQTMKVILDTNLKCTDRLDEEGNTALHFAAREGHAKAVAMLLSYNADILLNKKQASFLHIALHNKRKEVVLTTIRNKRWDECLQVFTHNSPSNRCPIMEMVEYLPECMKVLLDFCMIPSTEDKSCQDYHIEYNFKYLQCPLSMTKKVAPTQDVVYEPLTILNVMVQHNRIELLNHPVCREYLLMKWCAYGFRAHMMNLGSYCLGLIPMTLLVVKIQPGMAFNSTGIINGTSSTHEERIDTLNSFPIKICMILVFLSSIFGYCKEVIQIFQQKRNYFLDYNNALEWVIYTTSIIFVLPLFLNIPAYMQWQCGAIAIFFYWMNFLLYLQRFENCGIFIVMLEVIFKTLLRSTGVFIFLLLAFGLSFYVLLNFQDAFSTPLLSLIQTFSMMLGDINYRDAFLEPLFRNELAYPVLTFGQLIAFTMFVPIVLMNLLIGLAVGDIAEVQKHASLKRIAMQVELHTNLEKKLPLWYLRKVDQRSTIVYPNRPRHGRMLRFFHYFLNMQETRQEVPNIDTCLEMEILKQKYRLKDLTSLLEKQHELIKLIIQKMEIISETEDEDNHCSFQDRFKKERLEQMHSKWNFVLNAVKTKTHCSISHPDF
Method: as §1, §2, §3

mTRPM8 = target: T4, mTRPM8 (Mus musculus, UniProt Q8R4D5); test: Fluo-3 calcium imaging of TRPM8 transfected HEK293T cells; assay type: cell-based; conditions: 1 μM of FPP
T4 construct: transiently transfected with plasmid DNA containing polynucleotide encoding; expressed in transfected cells; host or cells: HEK293T (ATCC CRL-11268), transient
T4 sequence (Q8R4D5 whole entry): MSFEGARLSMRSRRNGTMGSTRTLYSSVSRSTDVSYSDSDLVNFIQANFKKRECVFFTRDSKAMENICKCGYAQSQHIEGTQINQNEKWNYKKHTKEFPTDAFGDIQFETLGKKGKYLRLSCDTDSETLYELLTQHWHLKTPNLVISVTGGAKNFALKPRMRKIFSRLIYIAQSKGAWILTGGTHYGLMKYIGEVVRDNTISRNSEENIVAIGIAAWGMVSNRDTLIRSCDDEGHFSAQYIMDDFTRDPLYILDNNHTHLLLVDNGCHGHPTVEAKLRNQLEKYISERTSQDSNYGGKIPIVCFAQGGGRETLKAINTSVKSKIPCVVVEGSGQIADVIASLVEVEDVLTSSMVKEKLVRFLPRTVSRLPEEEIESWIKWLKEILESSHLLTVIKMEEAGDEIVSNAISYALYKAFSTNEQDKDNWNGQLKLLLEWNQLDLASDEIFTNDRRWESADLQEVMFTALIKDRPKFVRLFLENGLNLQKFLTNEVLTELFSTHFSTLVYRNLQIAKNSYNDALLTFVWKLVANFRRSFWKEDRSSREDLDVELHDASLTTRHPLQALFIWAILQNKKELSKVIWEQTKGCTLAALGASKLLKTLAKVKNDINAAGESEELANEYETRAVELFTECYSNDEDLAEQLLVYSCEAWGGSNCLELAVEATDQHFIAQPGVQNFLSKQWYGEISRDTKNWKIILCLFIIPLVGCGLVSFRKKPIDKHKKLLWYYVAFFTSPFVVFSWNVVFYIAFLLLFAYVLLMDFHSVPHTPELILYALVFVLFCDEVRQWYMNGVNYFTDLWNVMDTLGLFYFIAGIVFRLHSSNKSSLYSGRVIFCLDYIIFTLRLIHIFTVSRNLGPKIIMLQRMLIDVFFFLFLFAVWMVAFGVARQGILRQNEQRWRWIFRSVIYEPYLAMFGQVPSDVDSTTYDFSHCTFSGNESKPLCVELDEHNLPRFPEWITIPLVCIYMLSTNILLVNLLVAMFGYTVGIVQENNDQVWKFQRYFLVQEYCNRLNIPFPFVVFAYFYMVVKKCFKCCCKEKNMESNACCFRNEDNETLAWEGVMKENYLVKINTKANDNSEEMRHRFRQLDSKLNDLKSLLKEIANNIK
Method: as §1, §2, §3

rTRPV2 = target: T5, rTRPV2 (Rattus norvegicus, UniProt Q9WUD2, A713V/L151P/T158I); test: Fluo-3 calcium imaging of TRPV2 transfected HEK293T cells; assay type: cell-based; conditions: 1 μM of FPP
T5 construct: transiently transfected with plasmid DNA containing polynucleotide encoding; expressed in transfected cells; host or cells: HEK293T (ATCC CRL-11268), transient
T5 sequence (Q9WUD2 1-761 L151P/T158I/A713V): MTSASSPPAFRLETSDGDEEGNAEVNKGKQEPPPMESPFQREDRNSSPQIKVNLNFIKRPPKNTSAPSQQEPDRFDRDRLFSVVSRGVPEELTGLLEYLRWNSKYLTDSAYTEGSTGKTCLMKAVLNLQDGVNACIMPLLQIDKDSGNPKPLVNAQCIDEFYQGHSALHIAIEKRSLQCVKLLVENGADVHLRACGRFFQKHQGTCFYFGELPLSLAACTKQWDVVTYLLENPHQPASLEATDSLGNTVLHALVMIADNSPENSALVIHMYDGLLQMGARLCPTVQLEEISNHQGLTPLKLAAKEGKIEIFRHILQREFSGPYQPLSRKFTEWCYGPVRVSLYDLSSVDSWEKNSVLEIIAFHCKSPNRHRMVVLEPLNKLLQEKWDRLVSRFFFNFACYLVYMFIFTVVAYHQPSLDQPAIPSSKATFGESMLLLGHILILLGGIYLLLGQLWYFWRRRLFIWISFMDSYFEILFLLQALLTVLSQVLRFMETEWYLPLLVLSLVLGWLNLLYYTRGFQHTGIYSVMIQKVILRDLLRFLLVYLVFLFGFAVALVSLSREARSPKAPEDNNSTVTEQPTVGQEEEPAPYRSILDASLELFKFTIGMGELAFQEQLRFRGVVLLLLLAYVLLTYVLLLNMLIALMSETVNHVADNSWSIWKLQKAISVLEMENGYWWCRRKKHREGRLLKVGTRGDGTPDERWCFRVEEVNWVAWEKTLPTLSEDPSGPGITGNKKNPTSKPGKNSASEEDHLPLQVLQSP
Method: as §1, §2, §3

HaCat skin cells = test: Artificial wound recovery: migration and proliferation of HaCat skin cells; assay type: cell-based; conditions: 1 μM of FPP, 12 hours after the treatment
Method: HaCat (ATCC, CCL-228) cell line was seeded in a 24-well plate. The present inventors drew lines 1 mm deep on the well fully filled with the cells to make artificial wound. The wounded cells were treated with FPP (1 μM), camphor (4 mM), RR (20 μM) and GGPP (10 μM) respectively and incubated in a CO2 incubator for 12 hours. The control group was not-treated. The width of recovered wound was measured under microscope and compared with that at the beginning, which was presented as wound recovery rate. All the experiments were performed on DMEM/FBS. Floating cells, which means dead cells, after making wound, were eliminated by using PBS to eliminate variables caused by dead cells. The cells were observed under microscope (×40, IX 71 OLYMPUS), and distance was measured by using image analysis program (Meta-flour 7.1, Molecular Devices, USA).

mice = test: Acute hind paw licking/flicking behaviors after CFA inflammatory sensitization; assay type: in vivo; conditions: CFA-injected right hind paw, FPP injected into hind paw, 20 minutes
Method: Inflammatory sensitization by FPP was investigated. Particularly, 10 μl of CFA (complete Freund's adjuvant; Sigma Aldrich, USA) was injected to the right hind paws of mice 24 hours before the FPP injection. Before the experiment, the mice were adapted for one hour to the experimental environment. 10 μl of vehicle (saline containing 3% DMSO and 0.5% Tween 80) alone or 10 μl of vehicle containing FPP (3 mM) was injected to the right hind paws of the mice. The time spent for the hind paw licking/flicking behaviors in mice were measured according to the method of Bandell M, et al. (Neuron 41:849-857, 2004) and Moqrich A, et al. (Science 307:1468-1472, 2005), for 20 minutes. Control: not-treated; Experimental group 1.20 μl of CFA+300 μM of FPP PBS solution (black circle); Experimental group 2.20 μl of CFA (white circle).

rTRPV1 = target: T6, rTRPV1 (Rattus norvegicus, UniProt O35433); test: Fluo-3 calcium imaging of TRPV1 transfected HEK293T cells; assay type: cell-based; conditions: 1 μM of FPP
T6 construct: transiently transfected with plasmid DNA containing polynucleotide encoding; expressed in transfected cells; host or cells: HEK293T (ATCC CRL-11268), transient
T6 sequence (O35433 whole entry): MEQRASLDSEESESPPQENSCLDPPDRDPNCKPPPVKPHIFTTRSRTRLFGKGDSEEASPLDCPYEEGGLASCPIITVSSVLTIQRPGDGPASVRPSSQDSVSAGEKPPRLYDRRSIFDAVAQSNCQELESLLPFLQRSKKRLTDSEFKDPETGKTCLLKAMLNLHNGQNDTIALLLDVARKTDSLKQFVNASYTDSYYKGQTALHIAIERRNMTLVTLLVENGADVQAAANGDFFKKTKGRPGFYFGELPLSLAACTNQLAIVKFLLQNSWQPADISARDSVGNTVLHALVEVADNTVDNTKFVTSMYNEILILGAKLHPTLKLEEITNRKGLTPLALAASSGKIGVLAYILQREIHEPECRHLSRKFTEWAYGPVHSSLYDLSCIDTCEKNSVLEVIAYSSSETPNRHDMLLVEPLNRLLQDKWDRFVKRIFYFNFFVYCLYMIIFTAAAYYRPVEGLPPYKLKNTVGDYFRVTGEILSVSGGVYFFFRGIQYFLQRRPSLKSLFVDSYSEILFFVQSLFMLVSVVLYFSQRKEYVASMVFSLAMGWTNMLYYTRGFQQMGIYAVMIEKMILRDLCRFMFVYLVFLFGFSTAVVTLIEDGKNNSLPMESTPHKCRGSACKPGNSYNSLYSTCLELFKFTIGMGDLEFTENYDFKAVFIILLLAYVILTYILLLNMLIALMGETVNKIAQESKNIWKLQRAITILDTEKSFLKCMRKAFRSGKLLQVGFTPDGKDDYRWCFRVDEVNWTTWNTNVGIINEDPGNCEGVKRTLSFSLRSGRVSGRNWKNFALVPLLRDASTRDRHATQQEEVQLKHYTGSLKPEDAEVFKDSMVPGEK
Method: as §1, §2, §3

- TRPV4 activation (calcium imaging) (rTRPV4): did not exhibited activity
- TRPV3 activity (whole cell current) (mTRPV3 [1]; 1 μM of FPP, +60 mV and −60 mV): significant increase of TRPV3 activity
- TRPV3 activation (calcium imaging) (mTRPV3 [2]; 1 μM of FPP): activated
- maximal effective dose (mTRPV3 [2]; calcium influx response, FPP 0.1 to 1,000 nM): approximately 1 μM
- pEC50 (mTRPV3 [2]; calcium influx response, FPP 0.1 to 1,000 nM, Hill plot, read-out: EC50 (effective concentration 50%) to TRPV3): 7.50
- TRPA1 activation (calcium imaging) (mTRPA1): did not exhibited activity
- TRPM8 activation (calcium imaging) (mTRPM8): did not exhibited activity
- TRPV2 activation (calcium imaging) (rTRPV2): did not exhibited activity
- TRPV1 activation (calcium imaging) (rTRPV1): did not exhibited activity
SMILES: CC(C)=CCCC(C)=CCCC(C)=CCOP(=O)(O)OP(=O)(O)O [FPP, 3,7,11-trimethyldodeca-2,6,10-trien-1-yl trihydrogen diphosphate]
- migration and proliferation of HaCat skin cells (wound recovery rate) (HaCat skin cells): significantly inhibited
- hind paw licking/flicking behavior (pain) (mice): significantly increased licking/flicking behavior

SMILES: CC(C)=CCC/C(C)=C/CC/C(C)=C/CC/C(C)=C/COP(=O)(O)OP(=O)(O)O [GGPP, geranyl-geranyl pyrophosphate, reference compound]
- TRPV3 activation (calcium imaging) (mTRPV3 [2]; 10 μM of analogue): did not induce TRPV3 activation

- TRPV3 activity (whole cell current) (mTRPV3 [1]; camphor 4 mM): the activity was not so much increased
SMILES: CC12CCC(CC1=O)C2(C)C (centres unmarked) [camphor]

- TRPV3 activity (whole cell current) on treatment with the TRP ion channel blocker (mTRPV3 [1]; ruthenium red applied to the activated mTRPV3 transfected cells): activity was reduced
SMILES: N.N.N.N.N.N.N.N.N.N.N.N.N.N.[Cl-].[Cl-].[Cl-].[Cl-].[Cl-].[Cl-].[O-2].[O-2].[Ru+3].[Ru+3].[Ru+4] [ruthenium red]
